The values below come from paper PMC8745710, “Biological Evaluation and Molecular Docking Studies of Novel 1,3,4-Oxadiazole Derivatives of 4,6-Dimethyl-2-sulfanylpyridine-3-carboxamide” (International Journal of Molecular Sciences, 2022).

The test system of assay [1] is VERO (kidney epithelial cells). Nature of the assay: MTT assay, VERO. As to conditions: Chlorocebus sabaeus, Vero, 48 h incubation, read-out: IC50 [µM] ± SD VERO. The assay is classed as cell-based. The text has this:
(§1) The MTT (3-[4,5-dimethylthiazol-2-yl]-2,5-diphenyl tetrazolium bromide) assay was used to determine the cytotoxicity of tested compounds towards different cell lines: normal human dermal fibroblasts (NHDF), kidney epithelial cells (VERO), fibroblasts from Chinese hamster lung (V79) and four human cancer cells: A549 (pulmonary basal cell alveolar adenocarcinoma), MCF-7 (breast adenocarcinoma), LoVo (colon adenocarcinoma), and its drug resistant subline LoVo/Dx. The cell lines used in this study express COX-1 and COX-2. The LoVo line expressed COX-1, the LoVo/Dx subline express both COX-1 and COX-2 [61].
(§2) Each cell line was grown in the culture media recommended by supplier. Before the test they were detached with trypsin/EDTA solution, then to neutralize the effect of Trypsin/EDTA solution, FBS containing medium was used. After centrifugation the cells were stained with 0.4% solution of trypan blue, counted and inspected for viability using microscope. In the end, cells were inserted into 96-well culture plates and incubated in CO2 incubator (37 °C, 24 h). The number of cells was 2 × 10^3 cells per well. The tested compounds with different concentrations (5, 10, 20, 50, 100 µM) were dissolved in DMSO and then added to the cells (the final DMSO concentration was 0.1%). The cultures were incubated for another 48 h. After that time the cells were collected to be used in tests.
(§3) MTT assay was used to find out how tested compounds influence the metabolic activity of investigated cell lines. The cells were incubated with tested compounds. After removing of supernatant, 1 mg/mL of MTT solution in MEM was added to the plate (to each well) and then the plates were incubated at 37 °C for 2 h. The medium was removed again, and formazan crystals were dissolved in isopropanol. A Varioscan LUX microplate reader (Thermo Fisher Scientific, Waltham, MA, USA) was used to measure absorbance at 570 nm.
(In general: Tetrazolium assays rely on reduction of a dye to a coloured formazan, in cell work by metabolically active cells.)

In a further assay the test system is V79 cell line. Put plainly: Intracellular ROS level (DCFH-DA), V79 cells. The assay is classed as cell-based, Chinese hamster. The following applies: Cricetulus griseus, 4 h, V79, compound 100 μM. The protocol: Two cell lines were chosen for investigations: V79 (Chinese hamster lung fibroblasts) and LoVo. V79 normal cells are widely used as the cell line tested in the studies of the oxidative stress. These cells are a living system model to explain the mechanism of ROS effects caused by varied compounds [73].
First, the tested compounds (in concentration of 100 μM) were added to the cell cultures and cells were incubated for 4 h. Then cells were washed and incubated with DCFH-DA (non-fluorescent probe) in dark at 37 °C for 2 h at CO2 [79]. Non-fluorescent, non-polar DCFH-DA (2′7′-dichlorodihydrofluorescein diacetate) at concentration of 25 μM was used as a marker of oxidative stress to determine the intracellular ROS levels. […] In this time, DCFH-DA which penetrated into the cells, was hydrolyzed by esterases to polar, non-fluorescent DCFH (2′7′-dichlorodihydrofluorescein) and then oxidized in the presence of ROS (reactive oxygen species) to fluorescent DCF (2′7′-dichlorofluorescein). DCF was measured using Varioscan LUX microplate reader (Thermo Fisher Scientific, Waltham, MA, USA) at λex = 485 nm and λem = 535 nm. Then results were presented as E/E0 where E is test sample value and E0—control value.
[…] E is the culture with the tested compound and E0 is the negative control without the compound. The routine statistical methods: two-way analysis of variance ANOVA as well as Tukey’s post-hoc test were used. It allowed us to determine the statistical significance of results, where p < 0.05 was set as significant. The statistical indicators were estimated using Statistica 13.3 software.

The target of a further assay is T1, COX-1 (Ovis aries, UniProt P05979).
T1 construct: purchased Cayman Chemical Company, Ann Arbor, MI, USA
T1 sequence (P05979 25-600): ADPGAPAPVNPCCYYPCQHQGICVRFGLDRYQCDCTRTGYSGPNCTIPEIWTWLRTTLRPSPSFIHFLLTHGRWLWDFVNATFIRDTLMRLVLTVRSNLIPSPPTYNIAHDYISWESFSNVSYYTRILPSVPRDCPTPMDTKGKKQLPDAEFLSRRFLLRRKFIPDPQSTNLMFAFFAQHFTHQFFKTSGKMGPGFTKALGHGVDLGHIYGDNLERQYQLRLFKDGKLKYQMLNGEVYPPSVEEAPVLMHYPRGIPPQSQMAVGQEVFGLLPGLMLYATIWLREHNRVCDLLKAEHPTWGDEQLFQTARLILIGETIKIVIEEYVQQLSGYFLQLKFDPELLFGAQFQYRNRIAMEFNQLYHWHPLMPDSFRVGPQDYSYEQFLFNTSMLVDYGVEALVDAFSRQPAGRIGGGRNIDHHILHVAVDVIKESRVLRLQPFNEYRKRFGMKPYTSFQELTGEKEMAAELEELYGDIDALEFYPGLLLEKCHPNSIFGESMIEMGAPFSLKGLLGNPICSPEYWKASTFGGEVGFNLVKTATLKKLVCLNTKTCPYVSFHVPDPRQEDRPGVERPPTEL
Nature of the assay: COX colorimetric inhibitor screening assay, COX-1. The assay is classed as biochemical. As to conditions: after 2 min of incubation, n = 5; for IC50: read-out: IC50 [µM] ± SD COX-1. An excerpt: The compounds were studied for their potencies to inhibit COX-1 and COX-2 enzymes by the colorimetric inhibitor screening assay.
A COX Colorimetric Inhibitor Screening Assay Kit, produced by Cayman Chemical Company, Ann Arbor, MI, USA, was used. It used the colorimetric monitoring of oxidized form of TMPD (N,N,N′,N′-tetramethyl-p-phenylenediamine) which was produced during reduction of prostaglandin G2 (PGG2) to PGH2. […] Reagents used it this assay were: COX-1 and COX-2 enzymes, Tris-HCl buffer, solutions of heme in DMSO and TMPD, arachidonic acid, KOH. To be sure that 100% enzymatic activity was achieved each sample was measured 3 times. The probes were measured after two minutes of incubation with tested compounds in the comparison to the initial activity of enzyme.

In assay [2] the test system is V79 (fibroblasts from Chinese hamster lung). Put plainly: MTT assay, V79. The assay is classed as cell-based. As to conditions: Cricetulus griseus, Fibroblast, 48 h incubation, read-out: IC50 [µM] ± SD V79.
Text: as §1, §2, §3

Assay [3] has as its system MCF-7 (breast adenocarcinoma). Nature of the assay: MTT assay, MCF-7. The assay is classed as cell-based. As to conditions: Homo sapiens, MCF7, 48 h incubation, read-out: IC50 [µM] ± SD MCF-7.
Text: as §1, §2, §3

For assay [4], the system named is LoVo (colon adenocarcinoma). Put plainly: MTT assay, LoVo. The assay is classed as cell-based. As to conditions: Homo sapiens, 48 h incubation, read-out: IC50 [µM] ± SD LoVo.
Text: as §1, §2, §3

Assay [5] has as its system A549 (pulmonary basal cell alveolar adenocarcinoma). Put plainly: MTT assay, A549. The assay is classed as cell-based. The following applies: Homo sapiens, 48 h incubation, read-out: IC50 [µM] ± SD A549.
Text: as §1, §2, §3

[6] abbreviates: with H2O2 (100 μM, 30 min), n = 5, read-out: ROS scavenging activity, Mean E/E0 ± SD, with H2O2.
The mark [7] stands for this setting: without H2O2, n = 5, read-out: ROS scavenging activity, Mean E/E0 ± SD, without H2O2.

Read-outs that look alike come from different tables or passages of the source.

In the case of `CSc1ccc(/C=N\NC(=O)Cn2nc(CNC(=O)c3c(C)cc(C)nc3S)oc2=S)cc1` [Compound 8, 4,6-Dimethyl-N-{[4-(2-(2-(4-methysulfanylbenzylidene)hydrazinyl)-2-oxoethyl)-5-sulfanylidene-4,5-dihydro-1,3,4-oxadiazole-2-yl]methyl}-2-sulfanylpyridine-3-carboxamide], the half-maximal inhibitory concentration (IC50) (usually the concentration needed to halve the response being measured) was determined as 50.4 ± 2.45 µM in assay [1]; 157 ± 12.1 µM on COX-1; 71.1 ± 2.4 µM in assay [2]; 9.41 ± 4.8 µM in assay [3]; 3.6 ± 0.55 µM in assay [4]; 4.34 ± 0.56 µM in assay [5]. For the same compound, the activity at 100 µM in the assay on V79 cell line (setting [6]) was determined as 72 ± 11%; in the assay on V79 cell line (setting [7]), 85 ± 29%.
With `Cc1cc(C)c(C(=O)NCc2nn(CC(=O)NN=Cc3cccc(Cl)c3)c(=S)o2)c(S)n1` [Compound 12, 4,6-Dimethyl-N-{[4-(2-(2-(3-chlorobenzylidene)hydrazinyl)-2-oxoethyl)-5-sulfanylidene-4,5-dihydro-1,3,4-oxadiazole-2-yl]methyl}-2-sulfanylpyridine-3-carboxamide], the IC50 in assay [1] is 79.2 ± 14.4 µM; at COX-1, 66.8 ± 5.19 µM; in assay [2], 52.8 ± 7.2 µM; in assay [3], 9.04 ± 2.84 µM; in assay [4] it was 3.07 ± 0.21 µM; in assay [5], 3.88 ± 0.5 µM. Also, the activity at 100 µM with V79 cell line (setting [6]) was 62 ± 25%; with V79 cell line (setting [7]), 68 ± 27%.
Take `Cc1cc(C)c(C(=O)NCc2nn(CC(=O)NN=Cc3ccc(Cl)cc3)c(=S)o2)c(S)n1` [Compound 10, 4,6-Dimethyl-N-{[4-(2-(2-(4-chlorobenzylidene)hydrazinyl)-2-oxoethyl)-5-sulfanylidene-4,5-dihydro-1,3,4-oxadiazole-2-yl]methyl}-2-sulfanylpyridine-3-carboxamide]: the IC50 in assay [1] came to 130 ± 9.5 µM; in assay [2] it was 56.1 ± 5.42 µM; in assay [3], 6.19 ± 0.19 µM; in assay [4], 3.12 ± 0.23 µM; in assay [5] it was 3.52 ± 0.19 µM. The activity at 100 µM is 82 ± 37% with V79 cell line (setting [6]) and 73 ± 27% in the assay with V79 cell line (setting [7]). Also, on COX-1, the “IC50 [µM] ± SD COX-1” value is listed as “selectively inhibited the activity of COX-2”.
Take `Cc1cc(C)c(C(=O)NCc2nn(CC(=O)NN=Cc3ccccc3)c(=S)o2)c(S)n1` [Compound 5, 4,6-Dimethyl-N-{[4-(2-(2-benzylidenehydrazinyl)-2-oxoethyl)-5-sulfanylidene-4,5-dihydro-1,3,4-oxadiazol-2-yl]methyl}-2-sulfanylpyridine-3-carboxamide]: the concentration for half-maximal inhibition (IC50) in assay [1] came to 100 ± 13.5 µM; on COX-1 it was 73.9 ± 3.03 µM; in assay [2] it was 84.3 ± 3.4 µM; in assay [3], 6.37 ± 1.09 µM; in assay [4], 3.13 ± 0.17 µM; in assay [5] it was 3.62 ± 0.43 µM. In addition, the activity at 100 µM in the assay on V79 cell line (setting [6]) came to 59 ± 21%; in the assay on V79 cell line (setting [7]), 82 ± 13%.
Turning to `Cc1ccc(C=NNC(=O)Cn2nc(CNC(=O)c3c(C)cc(C)nc3S)oc2=S)cc1` [Compound 7, 4,6-Dimethyl-N-{[4-(2-(2-(4-methylbenzylidene)hydrazinyl)-2-oxoethyl)-5-sulfanylidene-4,5-dihydro-1,3,4-oxadiazole-2-yl]methyl}-2-sulfanylpyridine-3-carboxamide], the IC50 in assay [1] worked out at 68.3 ± 3.24 µM; on COX-1, 148 ± 19.8 µM; in assay [2], 47.7 ± 1.73 µM; in assay [3] it was 6.33 ± 0.56 µM; in assay [4] it was 3.46 ± 0.39 µM; in assay [5], 3.72 ± 0.54 µM. Further, the values for the activity at 100 µM with V79 cell line (setting [6]) and in the assay on V79 cell line (setting [7]) were 81 ± 23% and 103 ± 39%, respectively.
For `Cc1cc(C)c(C(=O)NCc2nn(CC(=O)NN=Cc3ccccc3Br)c(=S)o2)c(S)n1` [Compound 13, 4,6-Dimethyl-N-{[4-(2-(2-(2-bromobenzylidene)hydrazinyl)-2-oxoethyl)-5-sulfanylidene-4,5-dihydro-1,3,4-oxadiazole-2-yl]methyl}-2-sulfanylpyridine-3-carboxamide], the IC50 in assay [1] stood at 55.7 ± 1.84 µM; on COX-1, 84.4 ± 5.89 µM; in assay [2], 65.4 ± 4.04 µM; in assay [3], 7.23 ± 0.49 µM; in assay [4], 2.89 ± 0.08 µM; in assay [5], 3.16 ± 0.21 µM. Moreover, the activity at 100 µM was found to be 50 ± 15% with V79 cell line (setting [6]) and 59 ± 8% in the assay on V79 cell line (setting [7]).
With `Cc1cc(C)c(C(=O)NCc2nn(CC(=O)NN=Cc3ccc(F)cc3)c(=S)o2)c(S)n1` [Compound 6, 4,6-Dimethyl-N-{[4-(2-(2-(4-fluorobenzylidene)hydrazinyl)-2-oxoethyl)-5-sulfanylidene-4,5-dihydro-1,3,4-oxadiazole-2-yl]methyl}-2-sulfanylpyridine-3-carboxamide], the half-inhibitory concentration (IC50) in assay [1] was 59.6 ± 5.42 µM; at COX-1, 145 ± 20.9 µM; in assay [2], 80.7 ± 5.6 µM; in assay [3], 6.37 ± 0.19 µM; in assay [4], 3.2 ± 0.26 µM; in assay [5], 4.05 ± 0.26 µM. The values for the activity at 100 µM with V79 cell line (setting [6]) and in the assay on V79 cell line (setting [7]) were 97 ± 11% and 82 ± 17%, respectively.
Turning to `Cc1cc(C)c(C(=O)NCc2nn(CC(=O)NN=Cc3ccc(C(F)(F)F)cc3)c(=S)o2)c(S)n1` [Compound 11, 4,6-Dimethyl-N-{[4-(2-(2-(4-trifluoromethylbenzylidene)hydrazinyl)-2-oxoethyl)-5-sulfanylidene-4,5-dihydro-1,3,4-oxadiazole-2-yl]methyl}-2-sulfanylpyridine-3-carboxamide], the concentration for half-maximal inhibition (IC50) came to 104 ± 4.98 µM in assay [1]; 86.2 ± 2.6 µM on COX-1; 55.2 ± 2.75 µM in assay [2]; 8.29 ± 4.45 µM in assay [3]; 3.12 ± 0.31 µM in assay [4]; 3.72 ± 0.24 µM in assay [5]. For the same compound, the activity at 100 µM was determined as 112 ± 20% with V79 cell line (setting [6]) and 67 ± 24% with V79 cell line (setting [7]).
